Measurements taken from patent US11066414B2, “Cot modulators and methods of use thereof” (Gilead Sciences, Inc., priority 2015, dated 2021).
Like-named read-outs stand apart in the source and are kept apart here.

How the values were obtained:
Human Cot = Human Cot (Homo sapiens (Human), UniProt P41279); experiment: High Throughput Cot Biochemical Assay
TNFα = experiment: Cot Monocyte TNFα Cell Based Assay
[1] = IC50 HTRF, Cot HTRF (TR-FRET) biochemical assay
[2] = Homo sapiens, Monocyte, read-out: EC50 TNF, LPS-stimulated human monocytes, TNFα
[3] = IC50 HTRF, Cot HTRF (TR-FRET KinEASE) biochemical assay, 400 μM ATP
[4] = Homo sapiens, Monocyte, read-out: EC50 TNF, LPS-stimulated human monocytes, TNFα TR-FRET
[5] = read-out: IC50 HTRF, Cot HTRF (TR-FRET) biochemical assay
[6] = read-out: EC50 TNF, LPS-stimulated human monocytes, TNFα
[7] = read-out: IC50 HTRF, Cot HTRF (TR-FRET KinEASE) biochemical assay, 400 μM ATP
[8] = read-out: EC50 TNF, LPS-stimulated human monocytes, TNFα TR-FRET

Sequence of Human Cot (P41279 30-397): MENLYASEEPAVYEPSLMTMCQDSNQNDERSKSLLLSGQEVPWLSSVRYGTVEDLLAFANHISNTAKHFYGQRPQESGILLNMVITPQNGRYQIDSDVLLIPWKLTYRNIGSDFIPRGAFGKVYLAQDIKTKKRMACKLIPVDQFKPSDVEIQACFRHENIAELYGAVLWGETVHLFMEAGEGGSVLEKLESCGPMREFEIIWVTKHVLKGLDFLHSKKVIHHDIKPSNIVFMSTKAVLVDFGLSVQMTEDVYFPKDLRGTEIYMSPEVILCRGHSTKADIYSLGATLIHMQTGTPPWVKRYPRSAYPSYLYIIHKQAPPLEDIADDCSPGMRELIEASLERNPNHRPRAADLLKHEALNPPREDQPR

Compound `Cc1ccc([C@H](Nc2cc(Cl)c3ncc(C#N)c(NCC(C)(C)C)c3c2)c2cn(C3(C(F)(F)F)CC3)nn2)c(F)n1` [Example 688, (S)-8-chloro-6-(((2-fluoro-6-methylpyridin-3-yl)(1-(1-(trifluoromethyl)-cyclopropyl)-1H-1,2,3-triazol-4-yl)methyl)amino)-4-(neopentylamino)quinoline-3-carbonitrile] has an IC50 (Human Cot; [1]) of 30 nM and an EC50 (TNFα; [2]) of 437 nM.
`CC(C)(C)CNc1c(C#N)cnc2c(C#N)cc(N[C@H](c3cn(C4(c5ccncc5)CC4)nn3)c3cccc4ncsc34)cc12` [Example 464, (S)-6-((benzo[d]thiazol-7-yl(1-(1-(pyridin-4-yl)cyclopropyl)-1H-1,2,3-triazol-4-yl)methyl)amino)-4-(neopentylamino)-quinoline-3,8-dicarbonitrile] was tested, and the IC50 (Human Cot; [1]) was 1 nM and the EC50 (TNFα; [2]) was 16 nM.
`Cc1nc(F)ccc1[C@H](Nc1cc(C#N)c2ncc(C#N)c(NCC(C)(C)C)c2c1)c1cn(C2(C(C)(C)C)CC2)nn1` [Example 860, (S)-6-(((1-(1-(tert-butyl)cyclopropyl)-1H-1,2,3-triazol-4-yl)(6-fluoro-2-methylpyridin-3-yl)methyl)amino)-4-(neopentylamino)quinoline-3,8-dicarbonitrile] was tested, and the IC50 (Human Cot; [3]) was 3 nM and the EC50 (TNFα; [4]) was 31 nM.
`CC[C@@H](Nc1c(C#N)cnc2c(Cl)cc(N[C@@H](c3cccnc3)c3cn(C(C)C)nn3)cc12)c1ccccc1` [Example 193, 8-chloro-6-(((S)-(1-isopropyl-1H-1,2,3-triazol-4-yl)(pyridin-3-yl)methyl)amino)-4-(((R)-1-phenylpropyl)amino)quinoline-3-carbonitrile] showed an IC50 (Human Cot; [1]) of 2 nM and an EC50 (TNFα; [2]) of 107 nM.
`Cc1nc(F)ccc1[C@H](Nc1cc(Cl)c2ncc(C#N)c(N[C@H]3[C@@H]4COC[C@@H]43)c2c1)c1cn(C2(C(F)(F)F)CC2)nn1` [Example 608, 4-(((lR,5S,6r)-3-oxabicyclo[3.1.0]hexan-6-yl)amino)-8-chloro-6-(((S)-(6-fluoro-2-methylpyridin-3-yl)(1-(1-(trifluoromethyl)cyclo-propyl)-1H-1,2,3-triazol-4-yl)methyl)amino)-quinoline-3-carbonitrile] gave an IC50 (Human Cot; [5]) of 42 nM and an EC50 (TNFα; [6]) of 314 nM.
Work on `CC[C@@H](Nc1c(C#N)cnc2c(Cl)cc(N[C@H](c3c[nH]nn3)c3cccnc3C)cc12)c1ccccc1` [Example 220, 8-chloro-6-(((S)-(2-methylpyridin-3-yl)(1H-1,2,3-triazol-4-yl)methyl)amino)-4-(((R)-1-phenylpropyl)amino)quinoline-3-carbonitrile] yielded an IC50 (Human Cot; [1]) of 4 nM and an EC50 (TNFα; [2]) of 348 nM.
For `Cc1nc2cccc([C@H](Nc3cc(C#N)c4ncc(C#N)c(NCC(C)(C)C)c4c3)c3cn(C4(C(F)(F)F)CC4)nn3)c2s1` [Example 430, (S)-6-(((2-methylbenzo[d]thiazol-7-yl)(1-(1-(trifluoromethyl)cyclopropyl)-1H-1,2,3-triazol-4-yl)methyl)amino)-4-(neopentylamino)quinoline-3,8-dicarbonitrile], the IC50 (Human Cot; [1]) was 5 nM and the EC50 (TNFα; [2]) was 214 nM.
“6-(((S)-(1-((1R,2R)-2- (difluoromethyl)cyclopropyl)- 1H-1,2,3-triazol-4-yl)(6-fluoro- 2-methylpyridin- 3-yl)methyl)amino)-4- [Example 834]” was tested, and the IC50 (Human Cot; [7]) was 5 nM and the EC50 (TNFα; [8]) was 68 nM.
Work on `CC(C)(C)N1CCC(n2cc([C@@H](Nc3cc(Cl)c4ncc(C#N)c(Nc5ccc(Cl)c(Cl)c5)c4c3)c3cscn3)nn2)CC1` [Example 350, (S)-6-(((1-(1-(tert-butyl)piperidin-4-yl)-1H-1,2,3-triazol-4-yl)(thiazol-4-yl)methyl)amino)-8-chloro-4-((3,4-dichlorophenyl)amino)quinoline-3-carbonitrile] yielded an IC50 (Human Cot; [1]) of 26 nM and an EC50 (TNFα; [2]) of 4510 nM.
`Cc1ncsc1[C@H](Nc1cc(Cl)c2ncc(C#N)c(N[C@H](C)c3ccccc3)c2c1)c1c[nH]nn1` [Example 243, 8-chloro-6-(((R)-(4-methylthiazol-5-yl)(1H-1,2,3-triazol-4-yl)methyl)amino)-4-(((R)-1-phenylethyl)amino)quinoline-3-carbonitrile] showed an IC50 (Human Cot; [1]) of 41 nM and an EC50 (TNFα; [2]) of 9490 nM.
In the case of `Cc1nc(F)ccc1[C@H](Nc1cc(Cl)c2ncc(C#N)c(NCC(C)(C)C(F)(F)F)c2c1)c1cn(C2(C)CC2)nn1` [Example 720, (S)-8-chloro-6-(((6-fluoro-2-methylpyridin-3-yl)(1-(1-methylcyclopropyl)-1H-1,2,3-triazol-4-yl)methyl)amino)-4-((3,3,3-trifluoro-2,2-dimethylpropyl)amino)-quinoline-3-carbonitrile], the IC50 (Human Cot; [1]) is reported as 2 nM and the EC50 (TNFα; [2]) is reported as 35 nM.
With `Cc1nc(Cl)ccc1[C@H](Nc1cc(Cl)c2ncc(C#N)c(Nc3ccc(F)c(Cl)c3)c2c1)c1cn(C(C)C)nn1` [Example 294, (S)-8-chloro-6-(((6-chloro-2-methylpyridin-3-yl)(1-isopropyl-1H-1,2,3-triazol-4-yl)methyl)amino)-4-((3-chloro-4-fluorophenyl)amino)quinoline-3-carbonitrile] the IC50 (Human Cot; [1]) was 9 nM and the EC50 (TNFα; [2]) was 166 nM.
`Cc1ccc([C@H](Nc2cc(Cl)c3ncc(C#N)c(Nc4ccc(F)c(Cl)c4)c3c2)c2c[nH]nn2)cn1` [Example 271, (S)-8-chloro-4-((3-chloro-4-fluorophenyl)amino)-6-(((6-methylpyridin-3-yl)(1H-1,2,3-triazol-4-yl)methyl)amino)quinoline-3-carbonitrile] gave an IC50 (Human Cot; [1]) of 9 nM and an EC50 (TNFα; [2]) of 826 nM.
Work on `CC(C)(C)CNc1c(C#N)cnc2c(C#N)cc(N[C@H](c3cn(C4(C(F)F)CC4)nn3)c3ccc(F)c4cnccc34)cc12` [Example 672] yielded an IC50 (Human Cot; [5]) of 2 nM and an EC50 (TNFα; [6]) of 22 nM.
`CC(C)(O)[C@H](Nc1c(C#N)cnc2c(Cl)cc(N[C@@H](c3cccnc3)c3c[nH]nn3)cc12)c1ccccc1` [Example 188, 8-chloro-4-(((R)-2-hydroxy-2-methyl-1-phenylpropyl)amino)-6-(((S)-pyridin-3-yl(1H-1,2,3-triazol-4-yl)methyl)amino)quinoline-3-carbonitrile] was tested, and the IC50 (Human Cot; [1]) was > 10000 nM and the EC50 (TNFα; [2]) was > 10000 nM.
`Cc1c([C@H](Nc2cc(Cl)c3ncc(C#N)c(NCC(C)(C)C)c3c2)c2cn(C3(C(F)(F)F)CC3)nn2)ccnc1Cl` [Example 938, (S)-8-chloro-6-(((2-chloro-3-methylpyridin-4-yl)(1-(1-(trifluoromethyl)cyclopropyl)-1H-1,2,3-triazol-4-yl)methyl)amino)-4-(neopentylamino)quinoline-3-carbonitrile] gave an IC50 (Human Cot; [3]) of 26 nM and an EC50 (TNFα; [4]) of 223 nM.
Work on `CC(C)n1cc([C@@H](Nc2cc(Cl)c3ncc(C#N)c(Nc4ccc(F)c(Cl)c4)c3c2)c2ccc3c(c2)CNCC3)nn1` [Example 50, (S)-8-chloro-4-((3-chloro-4-fluorophenyl)amino)-6-(((1-isopropyl-1H-1,2,3-triazol-4-yl)(1,2,3,4-tetrahydroisoquinolin-7-yl)methyl)amino)quinoline-3-carbonitrile] yielded an IC50 (Human Cot; [1]) of 70 nM and an EC50 (TNFα; [2]) of 3530 nM.
Work on `[2H][C@@](Nc1cc(Cl)c2ncc(C#N)c(NCC(C)(C)C)c2c1)(c1cn(C2CC2)nn1)c1cccnc1F` [Example 104, (S)-8-chloro-6-(((1-cyclopropyl-1H-1,2,3-triazol-4-yl)(2-fluoropyridin-3-yl)methyl-d)amino)-4-(neopentyl-amino)quinoline-3-carbonitrile] yielded an IC50 (Human Cot; [1]) of 1 nM and an EC50 (TNFα; [2]) of 99 nM.
With `Cn1cc2cccc([C@H](Nc3cc(Cl)c4ncc(C#N)c(NCC(C)(C)C)c4c3)c3cn(C4(C(F)(F)F)CC4)nn3)c2n1` [Example 570, (S)-8-chloro-6-(((2-methyl-2H-indazol-7-yl)(1-(1-(trifluoromethyl)cyclopropyl)-1H-1,2,3-triazol-4-yl)methyl)amino)-4-(neopentylamino)quinoline-3-carbonitrile] the IC50 (Human Cot; [1]) was 184 nM and the EC50 (TNFα; [2]) was 1000 nM.
For `Cc1nc(F)ccc1[C@H](Nc1cc(C#N)c2ncc(C#N)c(NCC(C)(C)C)c2c1)c1nnn([C@@H](C)CF)c1F` [Example 854, 6-(((S)-(5-fluoro-1-((S)-1-fluoropropan-2-yl)-1H-1,2,3-triazol-4-yl)(6-fluoro-2-methylpyridin-3-yl)methyl)amino)-4-(neopentylamino)quinoline-3,8-dicarbonitrile], the IC50 (Human Cot; [3]) was 4 nM and the EC50 (TNFα; [4]) was 17 nM.
In the case of `Cc1ncsc1[C@H](Nc1cc(Cl)c2ncc(C#N)c(NCC(C)(C)C)c2c1)c1cn(C2(C3CC3)CC2)nn1` [Example 702, (R)-6-(((1-([1,1′-bi(cyclopropan)]-1-yl)-1H-1,2,3-triazol-4-yl)(4-methylthiazol-5-yl)methyl)amino)-8-chloro-4-(neopentylamino)quinoline-3-carbonitrile], the IC50 (Human Cot; [1]) is reported as 4 nM and the EC50 (TNFα; [2]) is reported as 188 nM.
Compound `COc1c([C@@H](Nc2cc(Cl)c3ncc(C#N)c(NCC(C)(C)C)c3c2)c2ccc(F)nc2C)nnn1C` [Example 969, (S)-8-chloro-6-(((6-fluoro-2-methylpyridin-3-yl)(5-methoxy-1-methyl-1H-1,2,3-triazol-4-yl)methyl)amino)-4-(neopentylamino)quinoline-3-carbonitrile] has an IC50 (Human Cot; [3]) of 8 nM and an EC50 (TNFα; [4]) of 258 nM.
`CC(C)(C)CNc1c(C#N)cnc2c(C#N)cc(N[C@H](c3cn(C4CC4)nn3)c3csc4c3CCN(C3COC3)C4)cc12` [Example 433, (S)-6-(((1-cyclopropyl-1H-1,2,3-triazol-4-yl)(6-(oxetan-3-yl)-4,5,6,7-tetrahydrothieno[2,3-c]pyridin-3-yl)methyl)amino)-4-(neopentylamino)-quinoline-3,8-dicarbonitrile] showed an IC50 (Human Cot; [1]) of 1 nM and an EC50 (TNFα; [2]) of 65 nM.
`Cn1ccc2c([C@H](Nc3cc(C#N)c4ncc(C#N)c(NCC(C)(C)C)c4c3)c3cn(C4(C5CC5)CC4)nn3)cccc2c1=O` [Example 881, (S)-6-(((4-(1-(1-bi(cyclopropan)]-1-yl)-1H-1,2,3-triazol-4-yl)(2-methyl-1-oxo-1,2-dihydroisoquinolin-5-yl)methyl)amino)-4-(neopentylamino)quinoline-3,8-dicarbonitrile] showed an IC50 (Human Cot; [7]) of 2 nM and an EC50 (TNFα; [8]) of 13 nM.
